Measured values reported in the NIST ThermoML archive (doi:10.1007/s10765-006-0114-6).
± gives the expanded uncertainty stated by the source.

Conditions: Fluid (supercritical or subcritical phases), vibrating plate method

[Ar] [argon] gave a mass density (323.16 K, 7006 kPa) of 107.17 ± 1 kg/m3, a viscosity (323.16 K, 7006 kPa) of 0.02744 ± 0.00086 mPa·s and a mass density (323.16 K, 13877 kPa) of 213.45 ± 1.2 kg/m3. It also gave a viscosity (323.16 K, 13877 kPa) of 0.02979 ± 0.00088 mPa·s, a mass density (323.16 K, 20899 kPa) of 316.3 ± 1.3 kg/m3 and a viscosity (323.16 K, 20899 kPa) of 0.03257 ± 0.00094 mPa·s. The mass density (323.16 K, 27679 kPa) was 408.2 ± 1.4 kg/m3, the viscosity (323.16 K, 27679 kPa) was 0.0352 ± 0.001 mPa·s and the mass density (323.16 K, 34459 kPa) was 489.8 ± 1.6 kg/m3. The viscosity (323.16 K, 34459 kPa) was 0.0382 ± 0.0011 mPa·s, the mass density (323.16 K, 41249 kPa) was 561.2 ± 1.8 kg/m3 and the viscosity (323.16 K, 41249 kPa) was 0.0415 ± 0.0012 mPa·s. It also gave a mass density (323.16 K, 48119 kPa) of 624.2 ± 1.9 kg/m3, a viscosity (323.16 K, 48119 kPa) of 0.0448 ± 0.0013 mPa·s and a mass density (323.16 K, 54885 kPa) of 678.5 ± 1.9 kg/m3. The viscosity (323.16 K, 54885 kPa) was 0.0481 ± 0.0014 mPa·s, the mass density (323.16 K, 61690 kPa) was 726.2 ± 2.1 kg/m3 and the viscosity (323.16 K, 61690 kPa) was 0.0512 ± 0.0015 mPa·s. The mass density (323.16 K, 68312 kPa) was 767.5 ± 2.2 kg/m3, the viscosity (323.16 K, 68312 kPa) was 0.0542 ± 0.0016 mPa·s and the mass density (348.15 K, 6978 kPa) was 97.69 ± 0.93 kg/m3. It also gave a viscosity (348.15 K, 6978 kPa) of 0.02904 ± 0.00091 mPa·s, a mass density (348.15 K, 17496 kPa) of 241.15 ± 1.1 kg/m3 and a viscosity (348.15 K, 17496 kPa) of 0.03308 ± 0.00097 mPa·s. For the same molecule, the mass density (348.15 K, 27653 kPa) was 368.7 ± 1.4 kg/m3, the viscosity (348.15 K, 27653 kPa) was 0.0358 ± 0.001 mPa·s and the mass density (348.15 K, 34469 kPa) was 444.9 ± 1.5 kg/m3. The viscosity (348.15 K, 34469 kPa) was 0.0381 ± 0.0011 mPa·s, the mass density (348.15 K, 41288 kPa) was 513.1 ± 1.6 kg/m3 and the viscosity (348.15 K, 41288 kPa) was 0.0407 ± 0.0012 mPa·s. The mass density (348.15 K, 48154 kPa) was 574.3 ± 1.8 kg/m3, the viscosity (348.15 K, 48154 kPa) was 0.0434 ± 0.0012 mPa·s and the mass density (348.15 K, 54879 kPa) was 627.8 ± 1.9 kg/m3. It also gave a viscosity (348.15 K, 54879 kPa) of 0.0463 ± 0.0013 mPa·s, a mass density (348.15 K, 61690 kPa) of 676.3 ± 1.9 kg/m3 and a viscosity (348.15 K, 61690 kPa) of 0.049 ± 0.0014 mPa·s. It also gave a mass density (348.15 K, 68529 kPa) of 719.8 ± 2 kg/m3, a viscosity (348.15 K, 68529 kPa) of 0.051 ± 0.0015 mPa·s and a mass density (398.11 K, 7360 kPa) of 88.47 ± 0.8 kg/m3. For the same molecule, the viscosity (398.11 K, 7360 kPa) was 0.0292 ± 0.00091 mPa·s, the mass density (398.11 K, 13876 kPa) was 165.12 ± 0.87 kg/m3 and the viscosity (398.11 K, 13876 kPa) was 0.03138 ± 0.00092 mPa·s. The mass density (398.11 K, 27719 kPa) was 316.2 ± 1.1 kg/m3, the viscosity (398.11 K, 27719 kPa) was 0.0362 ± 0.001 mPa·s and the mass density (398.11 K, 34448 kPa) was 382.2 ± 1.3 kg/m3. The viscosity (398.11 K, 34448 kPa) was 0.0386 ± 0.0011 mPa·s, the mass density (398.11 K, 41294 kPa) was 443.6 ± 1.4 kg/m3 and the viscosity (398.11 K, 41294 kPa) was 0.0417 ± 0.0012 mPa·s. For the same molecule, the mass density (398.11 K, 48140 kPa) was 499.6 ± 1.6 kg/m3, the viscosity (398.11 K, 48140 kPa) was 0.0441 ± 0.0013 mPa·s and the mass density (398.11 K, 54949 kPa) was 550.4 ± 1.6 kg/m3. The viscosity (398.11 K, 54949 kPa) was 0.0466 ± 0.0013 mPa·s, the mass density (398.11 K, 61785 kPa) was 596.9 ± 1.8 kg/m3 and the viscosity (398.11 K, 61785 kPa) was 0.0491 ± 0.0014 mPa·s. For the same molecule, the mass density (423.11 K, 7008 kPa) was 79.27 ± 0.74 kg/m3, the viscosity (423.11 K, 7008 kPa) was 0.03113 ± 0.001 mPa·s and the mass density (423.11 K, 7272 kPa) was 82.13 ± 0.75 kg/m3. For the same molecule, the viscosity (423.11 K, 7272 kPa) was 0.02996 ± 0.00096 mPa·s, the mass density (423.11 K, 14124 kPa) was 157.84 ± 0.84 kg/m3 and the viscosity (423.11 K, 14124 kPa) was 0.03214 ± 0.001 mPa·s. It also gave a mass density (423.11 K, 14381 kPa) of 160.69 ± 0.85 kg/m3, a viscosity (423.11 K, 14381 kPa) of 0.03398 ± 0.001 mPa·s and a mass density (423.11 K, 21056 kPa) of 231.04 ± 0.95 kg/m3. The viscosity (423.11 K, 21056 kPa) was 0.0342 ± 0.001 mPa·s, the mass density (423.11 K, 21065 kPa) was 231.06 ± 0.95 kg/m3 and the viscosity (423.11 K, 21065 kPa) was 0.0361 ± 0.001 mPa·s. It also gave a mass density (423.11 K, 27779 kPa) of 297.59 ± 1.1 kg/m3, a viscosity (423.11 K, 27779 kPa) of 0.0381 ± 0.0011 mPa·s and a mass density (423.11 K, 27786 kPa) of 297.92 ± 1.1 kg/m3. It also gave a viscosity (423.11 K, 27786 kPa) of 0.0359 ± 0.001 mPa·s, a mass density (423.11 K, 34529 kPa) of 359.8 ± 1.4 kg/m3 and a viscosity (423.11 K, 34529 kPa) of 0.0403 ± 0.0021 mPa·s. The mass density (423.11 K, 34605 kPa) was 361 ± 1.4 kg/m3, the viscosity (423.11 K, 34605 kPa) was 0.0376 ± 0.0021 mPa·s and the mass density (423.11 K, 41249 kPa) was 417.7 ± 1.3 kg/m3. The viscosity (423.11 K, 41249 kPa) was 0.0398 ± 0.0011 mPa·s, the mass density (423.11 K, 48189 kPa) was 472.3 ± 1.5 kg/m3 and the viscosity (423.11 K, 48189 kPa) was 0.0418 ± 0.0012 mPa·s. The mass density (423.11 K, 48197 kPa) was 472.3 ± 1.5 kg/m3, the viscosity (423.11 K, 48197 kPa) was 0.0421 ± 0.0012 mPa·s and the mass density (423.11 K, 55018 kPa) was 521.5 ± 1.6 kg/m3. It also gave a viscosity (423.11 K, 55018 kPa) of 0.0444 ± 0.0013 mPa·s, a mass density (423.11 K, 61834 kPa) of 566.5 ± 1.6 kg/m3 and a viscosity (423.11 K, 61834 kPa) of 0.0467 ± 0.0014 mPa·s. For the same molecule, the mass density (423.11 K, 68620 kPa) was 608 ± 1.7 kg/m3 and the viscosity (423.11 K, 68620 kPa) was 0.0493 ± 0.0014 mPa·s.
